The data set deals with CCRIS mutagenicity, Ames/micronucleus/aberration tests. Kind of data set: CCRIS mutagenicity studies.
The mark [1] stands for this setting: Test System: AMES SALMONELLA TYPHIMURIUM, Strain/Indicator: TA100, Metabolic Activation: NONE, Method: PREINCUBATION
The mark [2] stands for this setting: Test System: AMES SALMONELLA TYPHIMURIUM, Strain/Indicator: TA100, Metabolic Activation: NONE, Method: STANDARD PLATE.
Where [3] appears, read: Test System: AMES SALMONELLA TYPHIMURIUM, Strain/Indicator: TA98, Metabolic Activation: NONE, Method: STANDARD PLATE.
Where [4] appears, read: Test System: AMES SALMONELLA TYPHIMURIUM, Strain/Indicator: TA1537, Metabolic Activation: NONE, Method: STANDARD PLATE.
[5] abbreviates: Test System: AMES SALMONELLA TYPHIMURIUM, Strain/Indicator: TA98, Metabolic Activation: NONE, Method: PREINCUBATION

Calls of active or inactive are those of the source. How the calls were made is not given here.

In the case of `O=C(Cl)c1ccccc1`, the mutagenic call reads like this: (Test System: AMES SALMONELLA TYPHIMURIUM, Strain/Indicator: TA98, Metabolic Activation: NONE, Method: 0-1000 UG/PLATE) “active; positive”; (Test System: AMES SALMONELLA TYPHIMURIUM, Strain/Indicator: TA98, Metabolic Activation: RAT LIVER S-9, PCB, Method: PREINCUBATION) “active; positive”; under setting [1], “active; positive”; under setting [2], “active; positive”; (Test System: AMES SALMONELLA TYPHIMURIUM, Strain/Indicator: TA100, Metabolic Activation: RAT LIVER S-9, PCB, Method: PREINCUBATION) “active; positive”; (Test System: AMES SALMONELLA TYPHIMURIUM, Strain/Indicator: TA104, Metabolic Activation: NONE, Method: PREINCUBATION) “active; positive”. The mutagenic call is, setting by setting: (Test System: AMES SALMONELLA TYPHIMURIUM, Strain/Indicator: TA104, Metabolic Activation: RAT LIVER S-9, PCB, Method: PREINCUBATION) “active; positive”; (Test System: E.COLI, Strain/Indicator: WP2 UVRA, Metabolic Activation: NONE, Method: PREINCUBATION) “active; positive”; (Test System: E.COLI, Strain/Indicator: WP2 UVRA, Metabolic Activation: RAT LIVER S-9, PCB, Method: PREINCUBATION) “active; positive”.
On to `c1ccc2c(c1)-c1cc3ccc4ccccc4c3cc1[C@H]1N[C@@H]21`, for which the mutagenic call under setting [3] was “active; positive” and the mutagenic call under setting [2] was “active; positive”.
Turning to `CCCCCCOCCOCCO`, the mutagenic call was “inactive; negative” under setting [3]; “inactive; negative” (Test System: AMES SALMONELLA TYPHIMURIUM, Strain/Indicator: TA98, Metabolic Activation: RAT LIVER S-9, AROCLOR 1254, Method: STANDARD PLATE); “inactive; negative” under setting [2]; “inactive; negative” (Test System: AMES SALMONELLA TYPHIMURIUM, Strain/Indicator: TA100, Metabolic Activation: RAT LIVER S-9, AROCLOR 1254, Method: STANDARD PLATE); “inactive; negative” (Test System: AMES SALMONELLA TYPHIMURIUM, Strain/Indicator: TA1535, Metabolic Activation: NONE, Method: STANDARD PLATE); “inactive; negative” (Test System: AMES SALMONELLA TYPHIMURIUM, Strain/Indicator: TA1535, Metabolic Activation: RAT LIVER S-9, AROCLOR 1254, Method: STANDARD PLATE). Besides, the mutagenic call is “inactive; negative” under setting [4]; “inactive; negative” (Test System: AMES SALMONELLA TYPHIMURIUM, Strain/Indicator: TA1537, Metabolic Activation: RAT LIVER S-9, AROCLOR 1254, Method: STANDARD PLATE); “inactive; negative” (Test System: AMES SALMONELLA TYPHIMURIUM, Strain/Indicator: TA1538, Metabolic Activation: NONE, Method: STANDARD PLATE); “inactive; negative” (Test System: AMES SALMONELLA TYPHIMURIUM, Strain/Indicator: TA1538, Metabolic Activation: RAT LIVER S-9, AROCLOR 1254, Method: STANDARD PLATE); “active; positive” (Test System: CHINESE HAMSTER OVARY CELLS, Strain/Indicator: CHO-K1-BH4 CELLS (HPRT)/6-THIOGUANINE, Metabolic Activation: RAT LIVER S-9, AROCLOR 1254, Method: PREINCUBATION).
Regarding `CC(=O)O.CC(=O)O.[O]=[U]=[O]`, the mutagenic call (Test System: Chinese hamster ovary cells, Strain/Indicator: EM9 (HPRT)/6-Thioguanine, Metabolic Activation: None) is “active; positive”.
Take `Cc1cc2nc3cc(C)c(N)cc3[n+](-c3ccccc3)c2cc1N`: the mutagenic call is “active; positive” (Test System: AMES SALMONELLA TYPHIMURIUM, Strain/Indicator: TA98, Method: PREINCUBATION) and “active; positive” (Test System: AMES SALMONELLA TYPHIMURIUM, Strain/Indicator: TA100, Method: PREINCUBATION).
In the case of `COc1ccc([N+](=O)[O-])ccc1=O`, the mutagenic call was “active; positive” (Test System: AMES SALMONELLA TYPHIMURIUM, Strain/Indicator: TA98, Metabolic Activation: RAT, LIVER, S-9, KC500 OR PHENOBARBITAL, Method: LIQUID SUSPENSION) and “active; positive” (Test System: AMES SALMONELLA TYPHIMURIUM, Strain/Indicator: TA100, Metabolic Activation: RAT, LIVER, S-9, KC500 OR PHENOBARBITAL, Method: LIQUID SUSPENSION).
`C=CCOC(=O)CCCCC`: the mutagenic call was “inactive; negative” (Test System: AMES SALMONELLA TYPHIMURIUM, Strain/Indicator: TA97, Metabolic Activation: NONE, Method: PREINCUBATION); “inactive; negative” (Test System: AMES SALMONELLA TYPHIMURIUM, Strain/Indicator: TA97, Metabolic Activation: RAT, LIVER, S-9, AROCLOR 1254, Method: PREINCUBATION); “inactive; negative” (Test System: AMES SALMONELLA TYPHIMURIUM, Strain/Indicator: TA102, Metabolic Activation: NONE, Method: PREINCUBATION); “inactive; negative” (Test System: AMES SALMONELLA TYPHIMURIUM, Strain/Indicator: TA102, Metabolic Activation: RAT, LIVER, S-9, AROCLOR 1254, Method: PREINCUBATION).
For `CCSc1cc(Cc2ccc(N)c(SCC)c2)ccc1N`, the mutagenic call under setting [5] was “inactive; negative”; the mutagenic call (Test System: AMES SALMONELLA TYPHIMURIUM, Strain/Indicator: TA98, Metabolic Activation: RAT, LIVER, S-9, PCB, Method: PREINCUBATION) was “active; positive”; the mutagenic call under setting [1] was “inactive; negative”; the mutagenic call (Test System: AMES SALMONELLA TYPHIMURIUM, Strain/Indicator: TA100, Metabolic Activation: RAT, LIVER, S-9, PCB, Method: PREINCUBATION) was “active; positive”.
For `O=C(O)C(Br)(Br)Br`, the mutagenic call (Test System: AMES SALMONELLA TYPHIMURIUM, Strain/Indicator: RSJ100, Metabolic Activation: NONE, Method: PREINCUBATION) is “inactive; negative”; the mutagenic call (Test System: AMES SALMONELLA TYPHIMURIUM, Strain/Indicator: RSJ100, Metabolic Activation: RAT LIVER S-9, Method: PREINCUBATION) was “inactive; negative”; the mutagenic call under setting [5] is “inactive; negative”; the mutagenic call (Test System: AMES SALMONELLA TYPHIMURIUM, Strain/Indicator: TA98, Metabolic Activation: RAT LIVER S-9, Method: PREINCUBATION) is “inactive; negative”; the mutagenic call (Test System: AMES SALMONELLA TYPHIMURIUM, Strain/Indicator: TA100, Metabolic Activation: NONE, Method: FLUCTUATION TEST) is “active; positive”; the mutagenic call under setting [1] was “inactive; negative”. Besides, the mutagenic call is “inactive; negative” (Test System: AMES SALMONELLA TYPHIMURIUM, Strain/Indicator: TA100, Metabolic Activation: RAT LIVER S-9, Method: PREINCUBATION) and “active; positive” (Test System: AMES SALMONELLA TYPHIMURIUM, Strain/Indicator: TA100, Metabolic Activation: RAT, LIVER, S-9, AROCLOR 1254, Method: FLUCTUATION TEST).
For the compound `CC(C)(C)C(Br)C(=O)Nc1ccccc1` (stereo unspecified), the mutagenic call runs as follows: (Test System: AMES SALMONELLA TYPHIMURIUM, Strain/Indicator: TA100, Metabolic Activation: MOUSE, LIVER, S-9, AROCLOR 1254, Method: STANDARD PLATE) “inactive; negative”; under setting [2], “inactive; negative”.
As to `COc1cc(O)ccc1Nc1c2ccccc2nc2ccccc12`, the mutagenic call under setting [4] was “active; positive”.
On to `COc1cc(COC(=O)CCCCCCC(C)C)ccc1O`, for which the mutagenic call is “inactive; negative” (End Point: In vivo micronucleus, Test System: Bone marrow polychromatic erythrocytes, Species: Mouse, Strain/Sex: BDF1/male, Route: Oral); “inactive; negative” (Test System: Ames Salmonella typhimurium, Strain/Indicator: TA98, Metabolic Activation: None, Method: Preincubation); “inactive; negative” (Test System: Ames Salmonella typhimurium, Strain/Indicator: TA98, Metabolic Activation: Rat, Liver, S-9, Phenobarbital and 5,6-benzoflavone, Method: Preincubation); “inactive; negative” (Test System: Ames Salmonella typhimurium, Strain/Indicator: TA100, Metabolic Activation: Rat, Liver, S-9, Phenobarbital and 5,6-benzoflavone, Method: Preincubation); “inactive; negative” (Test System: Ames Salmonella typhimurium, Strain/Indicator: TA1535, Metabolic Activation: None, Method: Preincubation); “inactive; negative” (Test System: Ames Salmonella typhimurium, Strain/Indicator: TA1535, Metabolic Activation: Rat, Liver, S-9, Phenobarbital and 5,6-benzoflavone, Method: Preincubation). Further, the mutagenic call by setting is: (Test System: Ames Salmonella typhimurium, Strain/Indicator: TA1537, Metabolic Activation: Rat, Liver, S-9, Phenobarbital and 5,6-benzoflavone, Method: Preincubation) “inactive; negative”; (Test System: E. coli, Strain/Indicator: WP2 uvrA, Metabolic Activation: None, Method: Preincubation) “inactive; negative”; (Test System: E. coli, Strain/Indicator: WP2 uvrA, Metabolic Activation: Rat, Liver, S-9, Phenobarbital and 5,6-benzoflavone, Method: Preincubation) “inactive; negative”.
With `CC(C)CNC(=O)C=Cc1ccc([N+](=O)[O-])o1`, the mutagenic call under setting [5] is “active; positive”.

For the origin of these results see PubChem BioAssay AID1259407 (Chemical Carcinogenesis Research Information System (CCRIS), 2018).
